Tests used:
[1] = molecular target: T1, Alpha-1A adrenergic receptor (Homo sapiens, UniProt P35348); type: functional, cell-based
T1 sequence (P35348 whole entry): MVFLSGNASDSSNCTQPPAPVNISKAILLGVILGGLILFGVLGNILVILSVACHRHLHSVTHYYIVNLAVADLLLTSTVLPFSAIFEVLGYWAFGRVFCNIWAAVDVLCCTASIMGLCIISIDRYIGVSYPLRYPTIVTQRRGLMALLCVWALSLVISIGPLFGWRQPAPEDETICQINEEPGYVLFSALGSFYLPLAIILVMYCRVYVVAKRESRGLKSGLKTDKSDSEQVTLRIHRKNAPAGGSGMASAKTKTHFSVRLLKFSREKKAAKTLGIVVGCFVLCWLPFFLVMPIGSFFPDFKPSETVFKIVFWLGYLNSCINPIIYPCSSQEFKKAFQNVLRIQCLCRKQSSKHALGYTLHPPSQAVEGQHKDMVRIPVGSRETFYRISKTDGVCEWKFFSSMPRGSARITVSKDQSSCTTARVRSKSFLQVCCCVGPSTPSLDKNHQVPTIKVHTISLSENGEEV

[2] = molecular target: D(1A) dopamine receptor (Homo sapiens, UniProt P21728)
Sequence of D(1A) dopamine receptor (P21728 whole entry): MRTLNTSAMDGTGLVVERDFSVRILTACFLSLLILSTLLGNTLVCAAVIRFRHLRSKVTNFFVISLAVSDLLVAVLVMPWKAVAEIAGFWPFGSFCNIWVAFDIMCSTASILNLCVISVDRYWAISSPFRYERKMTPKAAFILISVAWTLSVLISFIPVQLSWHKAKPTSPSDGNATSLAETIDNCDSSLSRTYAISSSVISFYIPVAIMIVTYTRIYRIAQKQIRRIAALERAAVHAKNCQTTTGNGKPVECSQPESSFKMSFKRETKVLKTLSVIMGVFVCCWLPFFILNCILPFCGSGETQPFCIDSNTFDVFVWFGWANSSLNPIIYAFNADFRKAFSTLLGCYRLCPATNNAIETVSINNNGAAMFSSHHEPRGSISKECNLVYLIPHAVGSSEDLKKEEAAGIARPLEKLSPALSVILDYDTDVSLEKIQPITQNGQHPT

[3] = molecular target: D(3) dopamine receptor (Homo sapiens, UniProt P35462)
Sequence of D(3) dopamine receptor (P35462 whole entry): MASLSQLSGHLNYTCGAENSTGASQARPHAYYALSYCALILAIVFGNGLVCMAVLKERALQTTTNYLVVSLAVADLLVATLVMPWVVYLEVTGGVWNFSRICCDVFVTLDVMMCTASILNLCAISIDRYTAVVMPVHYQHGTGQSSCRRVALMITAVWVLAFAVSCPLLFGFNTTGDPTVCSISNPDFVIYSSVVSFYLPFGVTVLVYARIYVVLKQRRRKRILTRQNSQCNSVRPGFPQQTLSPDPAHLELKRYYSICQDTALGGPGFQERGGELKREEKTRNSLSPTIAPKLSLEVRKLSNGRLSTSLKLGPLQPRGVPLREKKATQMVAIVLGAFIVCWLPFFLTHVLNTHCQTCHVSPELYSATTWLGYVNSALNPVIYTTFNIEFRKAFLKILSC

[4] = molecular target: T2, Amine oxidase [flavin-containing] A (Homo sapiens, UniProt P21397); type: functional
T2 sequence (P21397 whole entry): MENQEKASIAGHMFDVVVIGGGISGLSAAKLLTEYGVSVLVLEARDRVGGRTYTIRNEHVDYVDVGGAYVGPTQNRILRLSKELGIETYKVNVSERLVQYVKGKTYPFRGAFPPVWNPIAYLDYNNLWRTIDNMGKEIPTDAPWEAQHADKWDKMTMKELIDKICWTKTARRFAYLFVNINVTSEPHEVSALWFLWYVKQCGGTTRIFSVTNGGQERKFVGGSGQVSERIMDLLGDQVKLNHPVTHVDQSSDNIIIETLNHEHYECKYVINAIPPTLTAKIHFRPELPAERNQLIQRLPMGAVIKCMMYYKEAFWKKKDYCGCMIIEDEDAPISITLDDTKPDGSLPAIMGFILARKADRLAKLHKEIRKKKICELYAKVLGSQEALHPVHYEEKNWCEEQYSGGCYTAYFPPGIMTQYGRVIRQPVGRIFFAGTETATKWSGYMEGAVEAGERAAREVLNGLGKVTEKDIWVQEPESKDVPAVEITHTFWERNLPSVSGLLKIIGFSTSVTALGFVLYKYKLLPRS

[5] = molecular target: Mu-type opioid receptor (Homo sapiens, UniProt P35372)
Sequence of Mu-type opioid receptor (P35372 whole entry): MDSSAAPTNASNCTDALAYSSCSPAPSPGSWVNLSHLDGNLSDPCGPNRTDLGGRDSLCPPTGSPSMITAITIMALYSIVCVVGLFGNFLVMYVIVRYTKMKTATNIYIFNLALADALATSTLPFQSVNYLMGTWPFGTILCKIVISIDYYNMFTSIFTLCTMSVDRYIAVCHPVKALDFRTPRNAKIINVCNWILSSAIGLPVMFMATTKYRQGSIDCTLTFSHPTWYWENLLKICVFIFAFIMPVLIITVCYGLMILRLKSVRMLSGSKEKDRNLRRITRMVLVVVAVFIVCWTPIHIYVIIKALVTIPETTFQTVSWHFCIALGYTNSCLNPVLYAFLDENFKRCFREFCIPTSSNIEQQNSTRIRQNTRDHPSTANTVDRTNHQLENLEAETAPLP

[6] = molecular target: T3, Muscarinic acetylcholine receptor M2 (Homo sapiens, UniProt P08172); type: functional, cell-based
T3 sequence (P08172 whole entry): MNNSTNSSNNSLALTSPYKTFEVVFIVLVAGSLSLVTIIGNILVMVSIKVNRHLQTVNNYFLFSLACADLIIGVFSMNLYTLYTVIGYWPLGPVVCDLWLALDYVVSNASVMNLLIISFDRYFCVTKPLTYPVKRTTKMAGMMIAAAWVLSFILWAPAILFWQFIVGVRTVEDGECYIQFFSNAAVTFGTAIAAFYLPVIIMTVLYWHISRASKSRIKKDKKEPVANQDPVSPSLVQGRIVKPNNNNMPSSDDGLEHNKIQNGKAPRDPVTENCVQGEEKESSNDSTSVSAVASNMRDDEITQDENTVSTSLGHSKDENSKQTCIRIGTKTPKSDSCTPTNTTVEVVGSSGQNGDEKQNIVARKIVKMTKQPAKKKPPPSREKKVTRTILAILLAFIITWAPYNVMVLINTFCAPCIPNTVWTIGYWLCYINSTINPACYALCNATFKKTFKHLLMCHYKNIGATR

[7] = molecular target: Glutamate receptor ionotropic, NMDA 1 (Rattus norvegicus, UniProt P35439)
[8] = molecular target: Sodium-dependent dopamine transporter (Homo sapiens, UniProt Q01959)
Sequence of Sodium-dependent dopamine transporter (Q01959 whole entry): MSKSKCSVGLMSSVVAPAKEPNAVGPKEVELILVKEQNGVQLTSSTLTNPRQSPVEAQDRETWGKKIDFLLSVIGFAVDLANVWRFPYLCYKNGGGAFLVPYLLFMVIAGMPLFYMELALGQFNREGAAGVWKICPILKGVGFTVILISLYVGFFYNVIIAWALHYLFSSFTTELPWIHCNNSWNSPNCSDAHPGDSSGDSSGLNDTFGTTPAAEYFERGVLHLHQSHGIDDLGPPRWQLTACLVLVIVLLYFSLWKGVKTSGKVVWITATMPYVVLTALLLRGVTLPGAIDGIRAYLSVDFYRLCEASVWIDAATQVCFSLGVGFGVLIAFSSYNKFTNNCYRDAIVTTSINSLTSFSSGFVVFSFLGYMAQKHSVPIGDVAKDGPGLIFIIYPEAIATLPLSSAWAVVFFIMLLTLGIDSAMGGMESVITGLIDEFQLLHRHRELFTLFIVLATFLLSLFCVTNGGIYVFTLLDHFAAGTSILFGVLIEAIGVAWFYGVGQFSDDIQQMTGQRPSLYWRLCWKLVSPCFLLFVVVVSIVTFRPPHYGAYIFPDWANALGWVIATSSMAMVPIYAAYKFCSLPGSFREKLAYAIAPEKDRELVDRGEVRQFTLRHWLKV
Note: assay procedure not described here.

AC50 [6]	AC50 [7]	AC50 [8]	Compound	AC50 [1]	AC50 [2]	AC50 [3]	AC50 [4]	AC50 [5]
–	–	–	CCCCCCCCCCCCCCCC(=O)OC[C@H](COP(=O)([O-])OCC[N+](C)(C)C)OC(=O)CCCCCCCCCCCCCCC [COLFOSCERIL PALMITATE]	> 30 µM	> 30 µM	> 30 µM	> 30 µM	> 30 µM
–	–	–	COc1cccc2c1C(=O)c1c(O)c3c(c(O)c1C2=O)C[C@@](O)(C(=O)CO)C[C@@H]3O[C@H]1C[C@H](N)[C@H](O[C@@H]2CCCCO2)[C@H](C)O1 [PIRARUBICIN]	> 10 µM	> 30 µM	> 30 µM	> 30 µM	> 30 µM
> 30 µM	> 30 µM	> 10 µM	O=C(c1ccccc1)c1ccc2n1CCC2C(=O)O (stereo not given) [KETOROLAC]	–	–	–	–	–
> 10 µM	> 10 µM	> 10 µM	CCN(CCO)CCCC(C)Nc1ccnc2cc(Cl)ccc12 (stereo not given) [HYDROXYCHLOROQUINE]	–	–	–	–	–
–	–	–	O=C(O)[C@H](O)[C@@H](O)[C@H](O)[C@H](O)CO [GLUCONIC ACID]	> 30 µM	> 30 µM	> 30 µM	> 30 µM	> 30 µM
–	–	–	CC(C)(Oc1ccc(Cl)cc1)C(=O)NC(=O)NCN1CCOCC1 [PLAFIBRIDE]	> 30 µM	> 30 µM	> 30 µM	> 30 µM	> 30 µM
–	–	–	N=C(N)NCC1COc2ccccc2O1 (stereo not given) [GUANOXAN]	21.3 µM	23.4 µM	8.54 µM	> 30 µM	> 30 µM
–	–	–	N#Cc1ccnc(N2C(=O)CC[C@H]2C(=O)N(c2cncc(F)c2)[C@H](C(=O)NC2CC(F)(F)C2)c2ccccc2Cl)c1 [IVOSIDENIB]	> 30 µM	> 30 µM	> 30 µM	> 30 µM	> 30 µM
–	–	–	CC(C)Nc1cccnc1N1CCN(C(=O)c2cc3cc(NS(C)(=O)=O)ccc3[nH]2)CC1 [DELAVIRDINE]	> 30 µM	> 30 µM	> 30 µM	24 µM	13.9 µM
–	–	–	O=c1[nH]c2ccccc2n1CCN1CCN(c2cccc(C(F)(F)F)c2)CC1 [FLIBANSERIN]	0.391 µM	2.43 µM	0.286 µM	> 30 µM	1.3 µM
> 10 µM	> 10 µM	> 30 µM	C[C@H](CS)C(=O)N1CCC[C@H]1C(=O)O [CAPTOPRIL]	–	–	–	–	–
–	–	–	CO[C@@]1(NC(=O)C(C(=O)O)c2ccc(O)cc2)C(=O)N2C(C(=O)O)=C(CSc3nnnn3C)CO[C@@H]21 (stereo not given in full) [MOXALACTAM]	> 30 µM	> 30 µM	> 30 µM	> 30 µM	> 30 µM
–	–	–	CCCCCCCC/C=C\CCCCCCCC(=O)O [OLEIC ACID]	> 30 µM	> 30 µM	> 30 µM	> 30 µM	> 30 µM
–	–	–	C[C@]12CC[C@@H]3c4ccc(OC(=O)N(CCCl)CCCl)cc4CC[C@H]3[C@@H]1CC[C@@H]2OP(=O)(O)O [ESTRAMUSTINE PHOSPHATE]	> 30 µM	25.4 µM	> 30 µM	> 30 µM	> 30 µM
–	–	–	O=NN(CCCl)C(=O)NC1CCCCC1 [LOMUSTINE]	> 3 µM	> 30 µM	> 30 µM	> 30 µM	> 30 µM
> 10 µM	> 10 µM	> 10 µM	CCC1(c2ccccc2)C(=O)NCNC1=O [PRIMIDONE]	–	–	–	–	–
> 10 µM	> 10 µM	> 30 µM	O=C(O)COC(=O)Cc1ccccc1Nc1c(Cl)cccc1Cl [ACECLOFENAC]	–	–	–	–	–
–	–	–	CC#CC(=O)N1CCC[C@H]1c1nc(-c2ccc(C(=O)Nc3ccccn3)cc2)c2c(N)nccn12 [ACALABRUTINIB]	> 30 µM	> 30 µM	> 30 µM	> 30 µM	> 30 µM
